Data as given in patent US20180044672A1, “Pericyte Long Non-Coding RNAs” (Johann Wolfgang Goethe-Universität Frankfurt am Main, priority 2015, published 2018).
Entries after “also recorded” stand apart in the source; their conditions may differ.

Key:
[1] = PC viability by MTT assay; details: human
human pericytes (PC) = assay: PC viability by MTT assay
PDGFRβ [2] = assay: Murine TYKRIL knockdown in vivo, PDGFRβ in organs; parameters: species or system mouse; details: mice, 20 mg/kg intraperitoneally, single shot, 48 h
Description: (§1) HPLC purified. LNA GapmeRs were injected intraperitoneally at a dosage of 20 mg/kg bodyweight. 48 hours after injection, mice were sacrificed by isoflurane overdose and cardially perfused with PBS at a steady flow of 9 ml/min. Subsequently organs were removed and snap forzen for RNA and protein isolation.

mTYKRIL = assay: Murine TYKRIL knockdown in vivo, mTYKRIL in organs; parameters: species or system mouse; details: mice, 20 mg/kg intraperitoneally, single shot, 48 h
Description: as §1

TYKRIL = TYKRIL expression in human pericytes by qRT-PCR; assay type: cell-based; details: for TYKRIL expression levels in PC: LNA GapmeR 50 nmol/l, 48 h after transfection, vs scrambled control
Description: (§2) Cells were grown to 60-80% confluency and were transfected for 4 hours in Optimem Medium using Lipfectamine (both from Life technologies, Carlsbad, Calif., USA) with 50 nmol/l LNA GapmeR (Exiqon, Vedbaek, Denmarkt) according to the manufacturer's instructions. Controls were transfected with scrambled LNA GapmeR control. Four hours after LNA Gapmer Transfection, Optimem Medium was exchanged with normal cell culture medium. All experimental manipulations were carried out 48 hours after transfection.
(§3) Total RNA from PC was isolated using RNeasy Mini Kits (Qiagen, Hilden, Germany) as recommended by the manufacturer including a DNA digestion step. Nuclear and cytosolic fractions were prepared as documented elsewhere 34. 500-1000 ng RNA was reversely transcribed with random hexamer primers (ThermoScientific, Waltham, USA) by MulV reverse transcriptase (Lifetechnologies) in 40 μl reaction volume. Fast SYBR green or SYBR green (Applied Biosystems, Forster City, USA) and cDNA were used for qRT-PCR. A Viia7 or StepOnePlus from Applied Biosystems was used. CT values were normalized against ribosomal RPLP0. Relative gene expression levels were determined by the formula: 2-deltaCT; deltaCT=CTtarget−CTcontrol.

PDGFRβ [3] = assay: PDGFRβ expression in human pericytes by qPCR and immunoblotting; assay type: cell-based; details: for PDGFRβ mRNA (qPCR) / PDGFRβ protein levels (immunoblotting): upon TYKRIL silencing by LNA GapmeRs
Description: as §2, §3
Standard immunofluorescent staining procedures were carried out as described before 35-37. In brief, cells were washed with PBS, fixed in ice cold acetone for about 5 minutes. After washing cells were blocked for 2 hours at room temperature with 5% donkey serum (Dianova, Hambur, Germany), 0.3% Triton X-100 in PBS. Primary antibodies were incubated overnight in PBS containing 2% BSA, 0.1% Triton X-100. Secondary antibodies and Hoechst (Lifetechnologies, 1/1000) were incubated in 2% BSA, 0.1% azide for another 2 hours. For SDS Page protein isolation cells were washed once with ice-cold PBS, snap frozen in liquid nitrogen and RIPA-buffer (Thermo Scientific, Rockford, USA) supplemented with protease inhibitor (Roche Diagnostics) was applied. Cells were then scraped off with an ice cold rubber policeman and incubated for 45 minutes on ice under agitation. Subsequently probes were centrifuged for 10 minutes at 5000 RPM at 4° C. The supernatant was transferred into ice cold vials and protein concentration was determined by performing a Bradford assay with RotiQuant (Carl Roth, Karlsruhe, Germany) according to the manufacturer's instructions. Protein samples were mixed with an equal volume of 2× Laemmli buffer (Sigma Aldrich). Gels (Mini-Protean TGX, BioRad) were loaded with 20-30 μg protein per lane. SDS page was performed for 1 hour at 100V in […] (BioRad). Western Blotting was performed using a Pierce G2 Fast Blotter according to the manufacturer's instructions (ThermoScientific).

human pericytes = assay: RNA Seq upon TYKRIL knockdown in pericytes; assay type: cell-based; details: upon TYKRIL knockdown with LNA GapmeRs
Description: RNA deep sequencing was performed by analyzing ribosomal depleted total RNA from human Pericytes. RNA was isolated using a RNeasy Mini Kit (Qiagen) according to the manufacturer's instructions including DNA digestion. Subsequently RNA was fragmented and primed for cDNA synthesis. Libraries were created using a TruSeq RNA Ribo-Zero Globin kit (from Illumina) as recommended by the manufacturer. A Illumina HiSeq 2000 flowcell was used for sequencing. lncRNA annotation was done based on the NONCODE database (noncode.org).

[4] = p53 gain of function by doxorubicin treatment

## Cc1ccc(NC(=O)c2ccc(CN3CCN(C)CC3)cc2)cc1Nc1nccc(-c2cccnc2)n1 [Imatinib]
[1]; human pericytes (PC)
  cytotoxicity at 24 h, 1 μM: ~20%
[1]; human pericytes (PC) with TYKRIL silenced by LNA GapmeR
  cytotoxicity: ~45%
Human pericytes (PC); imatinib 1 μM, 24 h, compared with solvent PBS
  PC viability (MTT), in words: significantly decreased PC viability
Human pericytes (PC); imatinib upon TYKRIL silencing, compared with scramble control transfected PC
  PC viability (MTT), in words: significantly more reduced

## mLNA#4: murine TYKRIL LNA Gapmer, SEQ ID NO: 12, GTCTGCACTTAATTAA (LNA gapmer, pattern and linkages not given here; listed as Mus musculus)
PDGFRβ [2]
  PDGFRβ (qPCR) in heart: downregulation
  PDGFRβ protein level in heart: PDGFRβ loss
PDGFRβ [2]; 20 mg/kg
  PDGFRβ in kidneys: decreased; also recorded: downregulation
  PDGFRβ in liver: decreased; also recorded: downregulation
  PDGFRβ in lungs: decreased; also recorded: downregulation
  PDGFRβ in spleen: decreased; also recorded: downregulation
mTYKRIL
  mTYKRIL (qPCR) in heart: downregulation
mTYKRIL; 20 mg/kg
  mTYKRIL in kidneys: decreased; also recorded: downregulation
  mTYKRIL in liver: decreased; also recorded: downregulation
  mTYKRIL in lungs: decreased; also recorded: downregulation
  mTYKRIL in spleen: decreased; also recorded: downregulation

## COc1cccc2c1C(=O)c1c(O)c3c(c(O)c1C2=O)C[C@@](O)(C(=O)CO)C[C@@H]3O[C@H]1C[C@H](N)[C@H](O)[C@H](C)O1 [doxorubicin, reference compound]
TYKRIL; [4]
  TYKRIL expression: loss of TYKRIL; also recorded: downregulation
PDGFRβ [3]; [4]
  PDGFRβ on RNA level: downregulation of PDGFRβ; also recorded: significant decline
  PDGFRβ on protein level: downregulation of PDGFRβ; also recorded: significant decline

## LNA#1: LNA GapmeR against human TYKRIL, 5′-3′: AGAGGTGATTAAGGT (LNA gapmer: LNA flanks around DNA gap, pattern and linkages not given here)
TYKRIL
  TYKRIL expression levels in PC: significant reduction of TYKRIL
PDGFRβ [3]
  PDGFRβ mRNA (qPCR): loss of PDGFRβ
  PDGFRβ protein levels (immunoblotting): loss of PDGFRβ
Human pericytes
  Pericyte differentiation state by RNA Seq: de-differentiation of Pericytes

## LNA#3: LNA GapmeR against human TYKRIL, 5′-3′: AGTGAAGGACAGAGGC (LNA gapmer: LNA flanks around DNA gap, pattern and linkages not given here)
TYKRIL
  TYKRIL expression levels in PC: significant reduction of TYKRIL
PDGFRβ [3]
  PDGFRβ mRNA (qPCR): loss of PDGFRβ
  PDGFRβ protein levels (immunoblotting): loss of PDGFRβ
Human pericytes
  Pericyte differentiation state by RNA Seq: de-differentiation of Pericytes
